Target: T1, human recombinant adenosine A3 receptors (Homo sapiens, UniProt P0DMS8)
T1 construct: host or cells: CHO-K1 (Chinese hamster ovary K1 cells)
T1 sequence (P0DMS8 1-318): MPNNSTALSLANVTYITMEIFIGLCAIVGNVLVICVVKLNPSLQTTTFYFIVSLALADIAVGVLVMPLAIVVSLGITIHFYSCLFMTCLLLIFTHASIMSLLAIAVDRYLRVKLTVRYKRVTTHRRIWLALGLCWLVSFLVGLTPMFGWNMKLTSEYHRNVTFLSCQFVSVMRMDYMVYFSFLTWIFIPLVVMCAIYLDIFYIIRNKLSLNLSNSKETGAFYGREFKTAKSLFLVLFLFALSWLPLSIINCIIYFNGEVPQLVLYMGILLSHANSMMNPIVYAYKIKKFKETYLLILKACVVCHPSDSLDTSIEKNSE
Experiment: Test for affinity for adenosine A3 receptor ([125I]AB-MECA binding to CHO-K1 cell membranes)
Settings: for Affinity 10 μM: 10 μM trehalose compound; for Affinity 10 μM / Affinity 3 μM: 0.5 nM [125I]AB-MECA, 60 min, 25° C.; for Affinity 3 μM: 3 μM trehalose compound; for IC50: [125I]AB-MECA displacement
Protocol: Specifically, ovarium K1 cells of a Chinese hamster (obtained from Euroscreen S. A.; hereunder referred to as “CHO-K1”) expressing human recombinant adenosine A3 receptors were cultured in a modified HEPES buffer free of Ca^2+ and Mg^2+. Subsequently, the cultured CHO-K1 was scraped and homogenized in 50 mM of ice-cooled Tris-HCl (pH 7.4). The resulting mixture was subjected to centrifugation at 48,000×g for 15 minutes to obtain a cell membrane pellet. The obtained cell membrane pellet was washed twice with another modified HEPES buffer, and then subjected again to centrifugation. The washed cell membrane pellet was suspended again in a small quantity of 50 mM Tris-HCl (pH 7.4).
The concentration of the adenosine A3 receptor in the obtained cell membrane pellet was measured as follows. A 0.5 nM amount of [^125I] […] Thereafter, 50 mM of ice-cooled Tris-HCl (pH 7.4) was added thereto to halt the reaction, and then the cell membrane pellet was filtrated out using a glass fiber filter. The filtered cell membrane pellet was washed 3 times with an ice-cooled buffer so as to remove excessive ligands. The radioactivity in the resulting cell membrane pellet on a filter was measured using a scintillation counter (Type 1470 Automatic Counter; PerkinElmer, Inc.).
Separately, in order to measure nonspecific bindings of [^125I] AB-MECA other than to an adenosine A3 receptor, 1 μM of […] (a selective radioagonist of A3 receptor N^6-(3-iodobenzyl)-5′-(N-[…]) adenosine) was further added to the obtained suspension of the cell membrane pellet, and the same measurement was carried out as in the aforesaid binding experiment. The average specific binding value of [^125I] AB-MECA to the adenosine A3 receptor was calculated based on the results obtained in the above experiment.
Further, in a Comparative Example, the same measurement was carried out with respect to the compounds taught in Non-Patent Document 1 and Non-Patent Document 2 (in the chemical formula of Table 1, R^1=R^3=octyl, R^2=R^4=heptyl, X=X′=OH, and Y=Y′═O).

| Structure (SMILES) | Affinity 10 μM | Affinity 3 μM | IC50 | Affinity 10 μM (listed as F-5) | Affinity 10 μM (listed as F-6) |
| --- | --- | --- | --- | --- | --- |
| CCCCCCCCC(O)C(CCCCCCC)C(=O)OCC1O[C@H](O[C@@H]2OC(COC(=O)C(CCCCCCC)C(O)CCCCCCCC)[C@@H](O)C(O)C2O)C(O)C(O)[C@@H]1O (some centres unmarked) [Comparative Example, reference compound] | 29 | – | – | – | – |
| CCCCCC[C@@H](O)[C@@H](CCCCC)C(=O)OC[C@H]1O[C@H](O[C@H]2O[C@H](COC(=O)[C@H](CCCCC)[C@H](O)CCCCCC)[C@@H](O)[C@H](O)[C@H]2O)[C@H](O)[C@@H](O)[C@@H]1O [Production Example F-1, 6,6′-bis-O-[(2R,3R)-3-hydroxy-2-pentylnonanoyl]-α,α′-trehalose] | 97 | 56 | 2.61 µM | – | – |
| CCCCCC[C@H](O)[C@H](CCCCC)C(=O)OC[C@H]1O[C@H](O[C@H]2O[C@H](COC(=O)[C@@H](CCCCC)[C@@H](O)CCCCCC)[C@@H](O)[C@H](O)[C@H]2O)[C@H](O)[C@@H](O)[C@@H]1O [Production Example F-2, 6,6′-bis-O-[(2S,3S)-3-hydroxy-2-pentylnonanoyl]-α,α′-trehalose] | 86 | 57 | – | – | – |
| CCCCCC[C@H](O)[C@@H](CCCCC)C(=O)OC[C@H]1O[C@H](O[C@H]2O[C@H](COC(=O)[C@H](CCCCC)[C@@H](O)CCCCCC)[C@@H](O)[C@H](O)[C@H]2O)[C@H](O)[C@@H](O)[C@@H]1O [Production Example F-3, 6,6′-bis-O-[(2R,3S)-3-hydroxy-2-pentylnonanoyl]-α,α′-trehalose] | 100 | 59 | – | – | – |
| CCCCCC[C@@H](O)[C@H](CCCCC)C(=O)OC[C@H]1O[C@H](O[C@H]2O[C@H](COC(=O)[C@@H](CCCCC)[C@H](O)CCCCCC)[C@@H](O)[C@H](O)[C@H]2O)[C@H](O)[C@@H](O)[C@@H]1O [Production Example F-4, 6,6′-bis-O-[(2S,3R)-3-hydroxy-2-pentylnonanoyl]-α,α′-trehalose] | 91 | 32 | – | – | – |
| CCCCCCCC(O)C(CCCCCC)C(=O)OCC1OC(OC2OC(COC(=O)C(CCCCCC)C(O)CCCCCCC)C(O)C(O)C2O)C(O)C(O)C1O [Production Example F-5, 6,6′-bis-O-[(2R,3R)-2-hexyl-3-hydroxydecanoyl]-α,α′-trehalose] | – | – | – | 83 | – |
| CCCCCCCC(O)C(CCCCCC)C(=O)OCC1OC(OC2OC(COC(=O)C(CCCCCC)C(O)CCCCCCC)C(O)C(O)C2O)C(O)C(O)C1O [Production Example F-6, 6,6′-bis-O-[(2S,3S)-2-hexyl-3-hydroxydecanoyl]-α,α′-trehalose] | – | – | – | – | 59 |
| CCCCCCC(OC)C(CCCCC)C(=O)OCC1OC(OC2OC(COC(=O)C(CCCCC)C(CCCCCC)OC)C(O)C(O)C2O)C(O)C(O)C1O [Production Example F-7, 6,6′-bis-O-[(2R,3R)-3-methoxy-2-pentylnonanoyl]-α,α′-trehalose] | 96 | 84 | – | – | – |
| CCCCC(CCCC)C(=O)OC[C@H]1O[C@H](O[C@H]2O[C@H](COC(=O)C(CCCC)CCCC)[C@@H](O)[C@H](O)[C@H]2O)[C@H](O)[C@@H](O)[C@@H]1O [Production Example F-8, 6,6′-bis-O-(2-butylhexanoyl)-α,α′-trehalose] | 72 | 14 | – | – | – |
| CCCCCC(CCCCC)C(=O)OC[C@H]1O[C@H](O[C@H]2O[C@H](COC(=O)C(CCCCC)CCCCC)[C@@H](O)[C@H](O)[C@H]2O)[C@H](O)[C@@H](O)[C@@H]1O [Production Example F-9, 6,6′-bis-O-(2-pentylheptanoyl)-α,α′-trehalose] | 99 | 97 | 0.459 µM | – | – |
| CCCCCCC(CCCCCC)C(=O)OCC1OC(OC2OC(COC(=O)C(CCCCCC)CCCCCC)C(O)C(O)C2O)C(O)C(O)C1O (stereo not drawn) [Production Example F-10, 6,6′-bis-O-(2-hexyloctanoyl)-α,α′-trehalose] | 66 | 65 | – | – | – |
| CCCCCCCC(CCCCC)C(=O)OC[C@H]1O[C@H](O[C@H]2O[C@H](COC(=O)C(CCCCC)CCCCCCC)[C@@H](O)[C@H](O)[C@H]2O)[C@H](O)[C@@H](O)[C@@H]1O (stereo partly drawn) [Production Example F-11, 6,6′-bis-O-(2-pentylnonanoyl)-α,α′-trehalose] | 62 | 74 | – | – | – |
| CCCCC[C@@H](O)[C@@H](CCCC)C(=O)OC[C@H]1O[C@H](O[C@H]2O[C@H](COC(=O)[C@@H](CCCC)[C@@H](O)CCCCC)[C@@H](O)[C@H](O)[C@H]2O)[C@H](O)[C@@H](O)[C@@H]1O [Production Example F-12, 6-O-[(2R,3R)-2-butyl-3-hydroxyoctanoyl]-6′-O-[(2S,3S)-2-butyl-3-hydroxyoctanoyl]-α,α′-trehalose] | 48 | – | – | – | – |
| CCCCCC[C@@H](O)[C@@H](CCCCC)C(=O)OC[C@H]1O[C@H](O[C@H]2O[C@H](COC(=O)[C@@H](CCCCC)[C@@H](O)CCCCCC)[C@@H](O)[C@H](O)[C@H]2O)[C@H](O)[C@@H](O)[C@@H]1O [Production Example F-13, 6-O-[(2R,3R)-3-hydroxy-2-pentylnonanoyl]-6′-O-[(2S,3S)-3-hydroxy-2-pentylnonanoyl]-α,α′-trehalose] | 97 | 54 | 2.75 µM | – | – |
| CCCCCCC[C@@H](O)[C@@H](CCCCCC)C(=O)OC[C@H]1O[C@H](O[C@H]2O[C@H](COC(=O)[C@@H](CCCCCC)[C@@H](O)CCCCCCC)[C@@H](O)[C@H](O)[C@H]2O)[C@H](O)[C@@H](O)[C@@H]1O [Production Example F-14, 6-O-[(2R,3R)-3-hydroxy-2-hexyldecanoyl]-6′-O-[(2S,3S)-3-hydroxy-2-hexyldecanoyl]-α,α′-trehalose] | 77 | – | – | – | – |
| CCCCCC[C@@H](O)[C@@H](CCCCC)C(=O)NC[C@H]1O[C@H](O[C@H]2O[C@H](CNC(=O)[C@H](CCCCC)[C@H](O)CCCCCC)[C@@H](O)[C@H](O)[C@H]2O)[C@H](O)[C@@H](O)[C@@H]1O [Production Example F-15, 6,6′-bis-N-[(2R,3R)-3-hydroxy-2-pentylnonanoylamino]-6,6′-dideoxy-α,α′-trehalose] | 69 | 29 | – | – | – |
| CCCCCCC(OC)C(CCCCC)C(=O)NCC1OC(OC2OC(CNC(=O)C(CCCCC)C(CCCCCC)OC)C(O)C(O)C2O)C(O)C(O)C1O [Production Example F-16, 6,6′-bis-N-[(2R,3R)-3-methoxy-2-pentylnonanoylamino]-6,6′-dideoxy-α,α′-trehalose] | 96 | 57 | – | – | – |
| CCCCCCC(CCCCCC)C(=O)NCC1OC(OC2OC(CNC(=O)C(CCCCCC)CCCCCC)C(O)C(O)C2O)C(O)C(O)C1O (stereo not drawn) [Production Example F-17, 6,6′-bis-N-(2-hexyloctanoylamino)-6,6′-dideoxy-α,α′-trehalose] | – | 22 | – | – | – |
| CCCCCCCC(CCCCC)C(=O)NCC1OC(OC2OC(CNC(=O)C(CCCCC)CCCCCCC)C(O)C(O)C2O)C(O)C(O)C1O (stereo not drawn) [Production Example F-18, 6,6′-bis-N-(2-pentylnonanoylamino)-6,6′-dideoxy-α,α′-trehalose] | 89 | 33 | – | – | – |
